In ChEMBL document CHEMBL3627712, “Synthesis and initial evaluation of quinoline-based inhibitors of the SH2-containing inositol 5'-phosphatase (SHIP)” (Bioorg Med Chem Lett, 2015) one finds inhibition data, which are given here for 12 compounds.

The target in assay [1] is T1, Phosphatidylinositol 3,4,5-trisphosphate 5-phosphatase 2 (Homo sapiens) (UniProt O15357).
T1 sequence (whole entry): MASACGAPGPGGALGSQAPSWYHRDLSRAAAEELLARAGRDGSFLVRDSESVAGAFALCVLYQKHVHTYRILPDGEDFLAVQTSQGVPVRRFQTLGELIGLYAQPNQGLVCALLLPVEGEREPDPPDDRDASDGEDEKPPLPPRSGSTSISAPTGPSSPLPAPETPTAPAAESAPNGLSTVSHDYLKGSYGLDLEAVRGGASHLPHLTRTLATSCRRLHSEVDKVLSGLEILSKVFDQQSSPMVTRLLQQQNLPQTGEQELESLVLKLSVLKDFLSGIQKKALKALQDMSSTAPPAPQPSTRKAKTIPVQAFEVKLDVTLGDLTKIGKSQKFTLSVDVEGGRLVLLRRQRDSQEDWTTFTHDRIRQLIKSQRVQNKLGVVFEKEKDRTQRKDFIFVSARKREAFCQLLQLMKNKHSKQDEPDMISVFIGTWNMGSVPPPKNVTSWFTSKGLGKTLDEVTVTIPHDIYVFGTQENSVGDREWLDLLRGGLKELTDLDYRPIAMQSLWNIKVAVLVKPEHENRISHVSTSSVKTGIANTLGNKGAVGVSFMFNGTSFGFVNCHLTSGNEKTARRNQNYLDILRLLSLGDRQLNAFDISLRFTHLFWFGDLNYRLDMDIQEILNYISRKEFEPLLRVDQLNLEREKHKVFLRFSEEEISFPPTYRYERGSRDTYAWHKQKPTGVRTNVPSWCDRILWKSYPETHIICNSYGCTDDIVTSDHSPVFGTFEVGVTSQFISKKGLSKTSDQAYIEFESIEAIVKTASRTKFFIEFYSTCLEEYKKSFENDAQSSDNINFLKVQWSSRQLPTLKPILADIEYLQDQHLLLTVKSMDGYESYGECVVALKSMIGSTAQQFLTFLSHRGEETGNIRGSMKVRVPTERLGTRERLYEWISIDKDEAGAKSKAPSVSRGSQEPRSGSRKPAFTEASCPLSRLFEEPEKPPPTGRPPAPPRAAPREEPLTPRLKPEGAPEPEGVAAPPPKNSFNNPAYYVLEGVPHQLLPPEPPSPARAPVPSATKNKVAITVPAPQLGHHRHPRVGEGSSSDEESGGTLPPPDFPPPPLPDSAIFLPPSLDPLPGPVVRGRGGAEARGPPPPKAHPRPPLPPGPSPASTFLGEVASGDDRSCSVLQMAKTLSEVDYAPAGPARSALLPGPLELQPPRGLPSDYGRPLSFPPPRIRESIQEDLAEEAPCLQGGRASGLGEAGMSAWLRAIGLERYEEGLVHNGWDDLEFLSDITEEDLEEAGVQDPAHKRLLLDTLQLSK
Kind of assay: Inhibition of recombinant human truncated SHIP2 using PI(3,4,5)P3diC8 at 1 mM after 30 mins by malachite green phosphatase release assay.

For assay [2], the target named is T2, Phosphatidylinositol 3,4,5-trisphosphate 5-phosphatase 1 (Homo sapiens) (UniProt Q92835).
T2 sequence (whole entry): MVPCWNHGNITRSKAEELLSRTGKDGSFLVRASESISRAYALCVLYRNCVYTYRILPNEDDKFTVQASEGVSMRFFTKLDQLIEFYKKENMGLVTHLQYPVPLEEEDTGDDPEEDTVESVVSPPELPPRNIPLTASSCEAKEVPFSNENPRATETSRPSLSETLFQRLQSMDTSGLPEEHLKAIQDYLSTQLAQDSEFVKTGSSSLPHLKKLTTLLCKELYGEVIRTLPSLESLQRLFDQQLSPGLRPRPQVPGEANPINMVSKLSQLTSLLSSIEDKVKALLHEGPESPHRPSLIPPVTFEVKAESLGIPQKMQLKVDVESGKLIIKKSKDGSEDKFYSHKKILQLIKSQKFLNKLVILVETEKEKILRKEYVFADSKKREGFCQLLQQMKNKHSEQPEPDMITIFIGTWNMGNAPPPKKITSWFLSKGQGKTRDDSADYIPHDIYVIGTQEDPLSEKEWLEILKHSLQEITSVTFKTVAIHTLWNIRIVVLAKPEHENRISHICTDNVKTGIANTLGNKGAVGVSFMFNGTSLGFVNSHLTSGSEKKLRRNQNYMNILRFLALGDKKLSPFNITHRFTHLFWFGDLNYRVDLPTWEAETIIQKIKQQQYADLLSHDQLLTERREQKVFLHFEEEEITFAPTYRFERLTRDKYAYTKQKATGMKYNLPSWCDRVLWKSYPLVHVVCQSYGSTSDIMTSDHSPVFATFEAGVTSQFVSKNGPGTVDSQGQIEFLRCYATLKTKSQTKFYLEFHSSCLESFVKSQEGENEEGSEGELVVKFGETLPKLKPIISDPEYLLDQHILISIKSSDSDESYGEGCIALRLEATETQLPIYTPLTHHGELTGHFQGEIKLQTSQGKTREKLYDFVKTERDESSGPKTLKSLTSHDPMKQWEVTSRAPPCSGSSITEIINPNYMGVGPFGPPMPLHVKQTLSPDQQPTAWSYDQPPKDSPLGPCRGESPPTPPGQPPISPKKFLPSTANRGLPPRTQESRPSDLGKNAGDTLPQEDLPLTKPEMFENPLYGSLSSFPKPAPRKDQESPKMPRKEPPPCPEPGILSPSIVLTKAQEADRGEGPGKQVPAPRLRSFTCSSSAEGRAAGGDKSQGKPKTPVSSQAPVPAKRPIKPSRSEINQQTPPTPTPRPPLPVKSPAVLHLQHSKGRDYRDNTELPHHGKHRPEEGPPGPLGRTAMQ
Kind of assay: Inhibition of recombinant human truncated SHIP1 using PI(3,4,5)P3diC8 at 1 mM after 30 mins by malachite green phosphatase release assay.

For assay [3], the target named is T2, Phosphatidylinositol 3,4,5-trisphosphate 5-phosphatase 1 (Homo sapiens). Kind of assay: Inhibition of recombinant human truncated SHIP1 using PI(3,4,5)P3diC8 at 500 uM after 30 mins by malachite green phosphatase release assay.
Assay [4] has as its target T1, Phosphatidylinositol 3,4,5-trisphosphate 5-phosphatase 2 (Homo sapiens). The experiment in a line: Inhibition of recombinant human truncated SHIP2 using PI(3,4,5)P3diC8 at 500 uM after 30 mins by malachite green phosphatase release assay.

By inhibition is commonly meant the change of the read-out against control, counted positive when it falls. Regarding `NCc1cc(-c2ccccc2)nc2c1ccc1ccccc12`, the inhibition stood at 66% in assay [1] and 41% in assay [2].

As for `CN[C@@H](C)[C@@H](O)c1ccccc1`, the inhibition is 13% in assay [1] and 2% in assay [2].

For `C=C[C@H]1CN2CC[C@H]1C[C@@H]2[C@@H](O)c1ccnc2ccc(OC)cc12`, the inhibition in assay [1] is 5%; in assay [2], 19%.

As for `O=C(O)c1cc(C23CC4CC(CC(C4)C2)C3)nc2c(Cl)cc(Cl)cc12`, the inhibition is 44% in assay [3] and 0% in assay [4].

In the case of `O=C(O)c1cc(-c2ccccc2)nc2c1ccc1ccccc12`, the inhibition in assay [3] was 7%; in assay [4], 0%.

As to `OC(c1cc(C23CC4CC(CC(C4)C2)C3)nc2c(Cl)cc(Cl)cc12)C1CCCCN1` (centres undefined), the figures for the inhibition in assay [1] and in assay [2] were 73% and 38%, respectively.

`OC(c1cc(C(F)(F)F)nc2c(C(F)(F)F)cccc12)C1CCCCN1` (centres undefined): the inhibition in assay [1] and in assay [2] was 54% throughout.

Consider `OC(c1cc(-c2ccccc2)nc2c1ccc1ccccc12)C1CCCCN1` (centres undefined), for which the inhibition in assay [1] is 17%; in assay [2] it was 38%.

Regarding `CN[C@@H](C)[C@H](O)c1ccccc1`, the inhibition in assay [1] and in assay [2] was 0% in each case.

Take `OCc1cc(C23CC4CC(CC(C4)C2)C3)nc2c(Cl)cc(Cl)cc12`: the inhibition in assay [3] worked out at 0%; in assay [4], 14%.

As to `C=C[C@H]1CN2CC[C@H]1C[C@H]2[C@H](O)c1ccnc2ccc(OC)cc12`, the inhibition in assay [1] came to 8%; in assay [2] it was 0%.

On to `OCc1cc(-c2ccccc2)nc2c1ccc1ccccc12`, for which the inhibition in assay [3] stood at 2%; in assay [4], 18%.
